# Reference: PubChem BioAssay AID2060335 (Molecular Pharmacology Branch, DTP, NCI, 2025)
# Test system: DU-145 multicell spheroids with HUVEC/MSC, viability
# Test: Anticancer human tumor DU-145 cell line growth inhibition [IpAb];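 further: spheroids exposed to agents for seven days before measurement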;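 on viability, T/C: percent of DMSO vehicle control viability so 100% = untreated level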
# Conditions: for IC50: curve of first compound; for viability, T/C: stronger effect = lower value
# Text: Combinatorial screen of targeted agents with ipatasertib and abemaciclib in multi-cell type tumor spheroids
# A high-throughput screen of multi-cell type tumor spheroids was designed to identify active combinations of targeted small molecules and ipatasertib or abemaciclib. Complex spheroids include a stromal component modeled by human endothelial cells (HUVEC) and fibroblasts modeled by human mesenchymal stem cells (MSCs). The concentration ranges selected for each drug and investigational agent were based upon clinically achievable concentrations if the clinical Cmax of the agent was known.
# Compounds. The drugs and investigational agents: ipatasertib (NSC767898), abemaciclib(NSC768073), selumetinib (NSC741078), trametinib (758246), adavosertib (NSC754352), everolimus (NSC733504), sapanisertib (NSC764658), vemurafenib (NSC761431), venetoclax (NSC766270), copanlisib (NSC809693), apelisib (NSC765974), palbociblib (NSC758247), vemurafenib (NSC761431), dabrafenib (NSC764134), ravoxertinib (NSC781343), BMS-387032 (NSC767048), sotorasib (NSC818433), talazoparib (NSC767125) and afursertib (NSC778305), were obtained from the National Cancer Institute (NCI) Developmental Therapeutics Program Chemical Repository. The FDA-approved anticancer drug set is available from the NCI Developmental Therapeutics Program. […] The stock solutions were prepared in dimethyl sulfoxide (DMSO, Sigma-Aldrich, St. Louis, MO, cat. D2650) at 800-fold the tested concentration and stored at -70 degrees C prior to their use. All drugs and investigational agents were tested over a range starting from a high concentration at or near the clinical Cmax and decreasing in half-log increments. If the clinical Cmax for an agent had not been determined, the highest concentration tested was 10 microM.
# NCI60 Cell Culture. NCI60 cell lines were obtained from the NCI Developmental Therapeutics Program Tumor Repository. For each lot of cells, the Repository performed Applied Biosystems AmpFLSTR Identifiler testing with PCR amplification to confirm consistency with the published Identifier STR profile for each cell line. Cells were kept in continuous culture for no more than 20 passages. The optimal seeding densities for each of the cell lines at each time point assessed were determined prior to performing the concentration response studies. Briefly, the NCI60 human tumor lines were grown as monolayers in RPMI 1640 medium supplemented with 10% FBS and 2 mmol/L L-glutamine.
# An additional 9 lines were from the NCI60 cell line panel including MDA-MB-231 breast carcinoma, MDA-MB-468 breast carcinoma, MCF7 breast carcinoma, Hs578T breast carcinoma, MALME-3M melanoma, SK-MEL-2 melanoma, SK-OV-3 ovarian carcinoma, DU-145 prostate carcinoma, PC-3 prostate carcinoma, all cell lines along with major genetic alterations are listed on Table 2. Pooled donor human umbilical vein endothelial cells (HUVEC, Lonza, cat. CC-2519) and human mesenchymal stem cells (hMSC, Lonza, cat. PT-2501) were purchased from Lonza (Walkersville, MD).
# PDMR cell lines were grown in complete medium (DC medium): Dulbecco's modified Eagle's medium (DMEM)/F12 supplemented with 5% fetal bovine serum (FBS), 2 mM L-glutamine, 100 U/mL penicillin and 100 µg/ml streptomycin, 0.4 µg/ml hydrocortisone, 10 ng/ml epidermal growth factor (EGF) recombinant human protein, 24 µg/mL adenine, and 0.1 mg/mL primocin. During culture from frozen stock vials, PDMR cells were cultured in the same medium containing 10 µM Y-27632 (see Table 3). The PDCs were cultured in complete DMEM/F12 media without 10 microM Y-27632 dihydrochloride for at least two passages prior to the screen. The pooled donor HUVEC and hMSC were cultured in endothelial cell growth medium 2 (PromoCell, Heidelberg, Germany, cat. C-22011) and mesenchymal stem cell growth medium 2 (PromoCell, cat. C-28009), respectively. For all experiments, HUVEC and hMSC were used at passages </=5.
# […]
smiles,measurement,setting,value
CC(=O)c1c(C)c2cnc(Nc3ccc(N4CCNCC4)cn3)nc2n(C2CCCC2)c1=O + CC(C)NCC(C(=O)N1CCN(c2ncnc3c2C(C)CC3O)CC1)c1ccc(Cl)cc1,IC50,second compound 0.1 µM,> 300 nM
same,IC50,second compound 0.316 µM,> 300 nM
same,IC50,second compound 1 µM,< 0.949 nM
same,IC50,second compound 3.16 µM,< 0.949 nM
same,IC50,second compound 10 µM,< 0.949 nM
same,"viability, T/C","second compound 0.1 µM, first compound 0.000949 µM",85.3%
same,"viability, T/C","second compound 0.1 µM, first compound 0.003 µM",79.7%
same,"viability, T/C","second compound 0.1 µM, first compound 0.00949 µM",83.4%
same,"viability, T/C","second compound 0.1 µM, first compound 0.03 µM",89.2%
same,"viability, T/C","second compound 0.1 µM, first compound 0.0949 µM",81.8%
same,"viability, T/C","second compound 0.1 µM, first compound 0.3 µM",83.7%
same,"viability, T/C","second compound 0.316 µM, first compound 0.000949 µM",53%
same,"viability, T/C","second compound 0.316 µM, first compound 0.003 µM",52.1%
same,"viability, T/C","second compound 0.316 µM, first compound 0.00949 µM",52.2%
same,"viability, T/C","second compound 0.316 µM, first compound 0.03 µM",48.1%
same,"viability, T/C","second compound 0.316 µM, first compound 0.0949 µM",48.8%
same,"viability, T/C","second compound 0.316 µM, first compound 0.3 µM",54.7%
same,"viability, T/C","second compound 1 µM, first compound 0.000949 µM",29.3%
same,"viability, T/C","second compound 1 µM, first compound 0.003 µM",30.7%
same,"viability, T/C","second compound 1 µM, first compound 0.00949 µM",28.9%
same,"viability, T/C","second compound 1 µM, first compound 0.03 µM",28.7%
same,"viability, T/C","second compound 1 µM, first compound 0.0949 µM",28.6%
same,"viability, T/C","second compound 1 µM, first compound 0.3 µM",27.8%
same,"viability, T/C","second compound 3.16 µM, first compound 0.000949 µM",20.3%
same,"viability, T/C","second compound 3.16 µM, first compound 0.003 µM",19.7%
same,"viability, T/C","second compound 3.16 µM, first compound 0.00949 µM",19.2%
same,"viability, T/C","second compound 3.16 µM, first compound 0.03 µM",19.5%
same,"viability, T/C","second compound 3.16 µM, first compound 0.0949 µM",20.3%
same,"viability, T/C","second compound 3.16 µM, first compound 0.3 µM",19.9%
same,"viability, T/C","second compound 10 µM, first compound 0.000949 µM",16.8%
same,"viability, T/C","second compound 10 µM, first compound 0.003 µM",15.5%
same,"viability, T/C","second compound 10 µM, first compound 0.00949 µM",15.5%
same,"viability, T/C","second compound 10 µM, first compound 0.03 µM",17.2%
same,"viability, T/C","second compound 10 µM, first compound 0.0949 µM",15.6%
same,"viability, T/C","second compound 10 µM, first compound 0.3 µM",16.1%
